Source: patent US20150238401A1, “PROPYL-PHENYL-ETHER DERIVATIVE, AND MELANOGENESIS INHIBITOR, SKIN-LIGHTENING AGENT, ANTIMICROBIAL AGENT AND COSMETIC CONTAINING SAID PROPYL-PHENYL-ETHER DERIVATIVE” (SEIWA KASEI COMPANY, LIMITED, priority 2012, published 2015)

What was measured:
[1] = system: Escherichia coli, Pseudomonas aeruginosa, Staphylococcus aureus and Candida albicans; test: Antimicrobial test on SCD agar medium containing the sample; format: cell-based; settings: 12 specimens per sample (3.0%, 1.0%, 0.5% x four microorganisms), 30° C., 7 days, visual
Procedure: The propyl-phenyl-ether derivative of the present invention was evaluated for an antimicrobial test using four bacteria: Escherichia coli, Pseudomonas aeruginosa, Staphylococcus aureus and Candida albicans (use of ATCC strain) according to the following procedure. As a comparative compound, 1,2-pentandiol was used.
(1) Into a test tube containing 1.0 g of Tween 80 (polyoxyethylene sorbitan monooleate) added, 0.3 g, 0.1 g or 0.05 g of various samples were added, and SCD (Soybean Casein Digest) agar medium was added each in an amount of about 10 mL so as to give final concentrations of 3.0%, 1.0% and 0.5%, and stirred thoroughly with Vortex. Thereafter, the sample-containing medium was sterilized by high-pressure steam sterilization (for 15 minutes at 121° C.), cooled down to 45° C., the medium was poured gently onto a petri dish sterilized previously, and spread over the whole petri dish having signage of 4-section on the outer surface of the bottom, and allowed to stand still to solidify the medium. (2) Thereafter, various bacterium solutions of which number of bacteria had been previously regulated to 1.0×10^4 to 5.0×10^4 cfu/mL were inoculated on the sample-containing medium prepared in (1), each one bacterium for one section of the petri dish, each in an amount of 10 μL on four places (three concentrations are applied to four kinds of bacteria for each sample, that is, 12 specimens per sample). (3) These were cultured in a 30° C. thermostat bath for 7 days. (4) The presence or absence of bacteria was determined visually.
The results are classified by the following criteria and shown in Table 4. • The number of specimens confirming bacteria was 10 or more: Δ • The number of specimens confirming bacteria was 6 to 9: ◯ • The number of specimens confirming bacteria was 5 or less: ⊚

B16 melanoma 4A5 cell = test: Melanogenesis inhibiting test (theophylline-induced melanine production); format: cell-based; settings: B16 mouse melanoma 4A5, theophylline 1.0 mmol/L, 3 days culture, N=4; for IC40: B16 melanoma 4A5, 72 h, read-out: Judgment: sample concentration showing the melanogenesis inhibiting ratio of 40% or more
Procedure: As a test for a skin-lightening effect, evaluation of the action of B16 melanoma 4A5 cell on theophylline-induced melanine production was carried out on propyl-phenyl-ether derivatives of the present invention, according to the following procedure. (1) B16 mouse melanoma 4A5 strain was sowed onto a 48-well plate at a cell density of 8.0×10^3 cells/well. (2) Culturing was performed for 24 hours with Dulbecco's Modified Eagle's medium (manufactured by SIGMA. Hereinafter, abbreviated as D-MEM) containing 10% fetal bovine serum (manufactured by Nichirei Biosciences Inc.). […] (3) After culturing for 3 days in the co-existence of a sample, the medium was removed using an aspirator. Then, after distilled water was added, cells were broken by an ultrasonic wave. (4) Thereafter, the amount of protein was determined using BCA protein assay kit (manufactured by Thermo Fisher Scientific Inc.), and the produced amount of melanine was measured by an alkali solubilizing method described below. [Alkali Solubilizing Method] To the cell-destructed solution was added sodium hydroxide so as to give a final concentration of 1 mol/L and the mixture was dissolved by heating (60° C., 30 minutes), then, the absorbance at 450 nm was measured using a micro plate reader. The melanine amount was calculated from a calibration curve made using synthetic melanine (SIGMA) as a standard. The melanine amount per unit protein was calculated by dividing the melanine amount by the protein amount. (5) The melanine production suppressing rate was calculated according to the following formula. Melanine production suppressing rate (%)=[1−(A−B)/(C−B)]×100 [wherein, A represents the melanine amount per unit protein (g/g) in adding a sample, B represents the melanine amount per unit protein (g/g) in the normal group, and C represents the melanine amount per unit protein (g/g) in the control group.] In the above, Normal group is a case of theophylline (−; no addition) and sample (−; no addition), and Control group is a case of theophylline (+; addition) and sample (−; no addition). (6) Determination of Skin-Lightening Effect The amount of a sample required for adjusting the melanogenesis inhibiting ratio to 40% or more was measured, and the effect was evaluated by the following criteria based on the measured amount. The measurement was conducted at N=4 (4 wells per sample). The skin-lightening effect is expressed as described below based on the sample concentration showing the melanogenesis inhibiting ratio of 40% or more. The measurement was conducted at N=4.

[2] = Stability test (coloration on storage); format: physicochemical; settings: for Coloration, 2 weeks after / Coloration, 4 weeks after: 1% in 50% ethanol, pH 6.0 to 8.0, stored at 50° C., total points of 10 panelists
Procedure: Aascorbic acid, kojic acid, hydroquinone and arbutin which are known skin-lightening agents were used as comparative compounds. […] The solutions were placed in 50 mL screw tubes and closely sealed, and stored at 50° C. for 4 weeks. The degrees of coloration of the solution directly after preparation of the test sample, 2 weeks after storage and 4 weeks after storage were evaluated by 10 panelists according to the following criteria. 3: almost no change as compared with directly after preparation 2: colored as compared with directly after preparation 1: intensely colored as compared with directly after preparation The evaluation results of coloration were classified as described below.

[3] = system: Propionibacterium acnes (JCM6415); test: Anti-acne test (growth in GAM bouillon medium, OD620); format: cell-based; settings: sample final concentration 0.1%, 37° C., anaerobic, 48 hours
Procedure: Propionibacterium acnes (JCM6415: ATCC strain) was transplanted to GAM bouillon medium (manufactured by Nissui Pharmaceutical Co., Ltd.), and cultured at 37° C. under anaerobic condition for 24 hours. Thereafter, it was diluted with GAM bouillon medium so that the final bacterium concentration was OD620=0.1, and this was used as a test bacterium solution. In examples, the propyl-phenyl-ether derivative was weighed so that the final concentration was 0.1%, dissolved in GAM bouillon medium, then, filter-sterilization was performed. The resultant solution was used as a sample solution. The test bacterium solution was added in an amount of 30 μL and the sample solution was added in an amount of 120 μL to a 96-well microplate (manufactured by Sumitomo Bakelite Co., Ltd.), then, immediately, the micro plate and AnaeroPack-KENKI (manufactured by Mitsubishi Gas Chemical Co., Inc.) were placed into an anaerobic jar (manufactured by Mitsubishi Gas Chemical Co., Inc.), and culture was carried out at 37° C. under anaerobic condition for 48 hours. Thereafter, OD620 was measured by a microplate reader. The same test was conducted using methylparaben, phenoxyethanol and sodium ascorbate as comparative compounds.
The results are classified by the following criteria and shown in Table 5-Table 7. • Δ: OD620 is 0.6 or more • ◯: OD620 is 0.3-0.6 • ⊚: OD620 is 0.3 or less

SMILES	Judgment: number of specimens confirming bacteria [1]	IC40 (B16 melanoma 4A5 cell) [µM]	Coloration, 2 weeks after [2]	Coloration, 4 weeks after ([2]; 4 weeks)	Judgment: sample concentration showing the melanogenesis inhibiting ratio of 40% or more (B16 melanoma 4A5 cell)	Stability in terms of coloration (in words) ([2]; summary of Table 8, 50° C., 4 weeks)	Judgment: OD620 after culture [3]
CCCC(O)CO (stereo not shown) [1,2-pentandiol, reference compound]	Δ (The number of specimens confirming bacteria was 10 or more: Δ)						
O=c1cc(CO)occ1O [Kojic acid]		≥ 300	◯ (◯: total points of 10 panelists is 22 or more)	Δ (Δ: total points of 10 panelists is 15 to 21)			
CC(C)(C)c1ccc(OCC(O)CO)cc1 (stereo not shown) [Example 1, 1,2-di-hydroxy-3-(4′-tert-butylphenoxy)propyl]	⊚ (The number of specimens confirming bacteria was 5 or less: ⊚)		◯ (◯: total points of 10 panelists is 22 or more)	◯ (◯: total points of 10 panelists is 22 or more)	⊚⊚ (≦30 μmol/L: ⊚⊚)	excellent in stability in terms of coloration	⊚⊚
CCCCCCCC(=O)OCC(COc1ccc(C(C)(C)C)cc1)OC(=O)CCCCCCC (stereo not shown) [Example 7, 1,2-di-octanoyl-3-(4′-tert-butylphenoxy) propyl]	◯ (The number of specimens confirming bacteria was 6 to 9: ◯)				⊚⊚ (≦30 μmol/L: ⊚⊚)		◯ (◯: OD620 is 0.3-0.6)
CCC(C)c1ccccc1OCC(O)CO (stereo not shown) [Example 6, 1,2-di-hydroxy-3-(2′-sec-butylphenoxy)propyl]	◯ (The number of specimens confirming bacteria was 6 to 9: ◯)	100 to 300					◯ (◯: OD620 is 0.3-0.6)
CCC(C)c1ccc(OCC(O)CO)cc1 (stereo not shown) [Example 5, 1,2-di-hydroxy-3-(4′-sec-butylphenoxy)propyl]	⊚ (The number of specimens confirming bacteria was 5 or less: ⊚)				⊚ (30 to 100 μmol/L: ⊚)		◯ (◯: OD620 is 0.3-0.6)
Oc1ccc(O)cc1 [Hydroquinone]		≥ 300	X (X: total points of 10 panelists is 14 or less)	X (X: total points of 10 panelists is 14 or less)			
OC[C@H]1O[C@@H](Oc2ccc(O)cc2)[C@H](O)[C@@H](O)[C@@H]1O [Arbutin]		30 to 100	◯ (◯: total points of 10 panelists is 22 or more)	Δ (Δ: total points of 10 panelists is 15 to 21)			
O=C1O[C@H]([C@@H](O)CO)C(O)=C1O [Ascorbic acid]		≥ 300	X (X: total points of 10 panelists is 14 or less)	X (X: total points of 10 panelists is 14 or less)			
CCOCC(O)COc1ccc(C(C)(C)C)cc1 (stereo not shown) [Example 3 (1-O-ethyl-2-hydroxy-3-(4′-tert-butylphenoxy)propy] [1-O-ethyl-2-hydroxy-3-(4′-tert-butylphenoxy)propyl]	⊚ (The number of specimens confirming bacteria was 5 or less: ⊚)				⊚⊚ (≦30 μmol/L: ⊚⊚)		◯ (◯: OD620 is 0.3-0.6)
